Consider two compounds from publication PMC5738391, “Three classes of ligands each bind to distinct sites on the orphan G protein-coupled receptor GPR84” (Scientific Reports, 2017).

Data set [1] concerns the target T1, human GPR84 (FLAG-hGPR84-eYFP) (Homo sapiens, UniProt Q9NQS5).
T1 construct: expressed in transfected cells
In words: HTRF-based cAMP inhibition assay in Flp-In T-REx 293 cells expressing FLAG-hGPR84-eYFP. It counts as cell-based. The settings on record: 100 μM of each MCFA. As to the method: For the assay cells were plated at 5000 cells/well in low-volume 384-well plates. The ability of agonists to inhibit 1 μM forskolin-induced cAMP production was assessed following a co-incubation for 30 min with agonist compounds.
In general terms: Time-resolved FRET reads energy transfer from a long-lived donor to a nearby acceptor.

Data set [2] deals with T2, Arg^172Ala GPR84-Cys^352Ile Gαi2 fusion protein (Homo sapiens, UniProt Q9NQS5, R172A).
T2 construct: Cys352Ile Gαi2 (fusion partner, same polypeptide); expressed in transfected cells; host or cells: membranes of Flp-In T-REx 293 cells, doxycycline-induced
In words: [35S]GTPγS binding, Arg172Ala mutant fusion protein. It counts as biochemical. From the text:
To try to identify how a MCFA might interact with GPR84 we turned to homology modelling studies. Although GPR84 is not closely related to the other GPCRs that respond to either short chain (FFA2, FFA3) or long chain (FFA1, FFA4) fatty acids[8],[9], in each of the other cases the carboxylate of the fatty acid is co-ordinated by one or more arginine residues located at or near the extracellular surface[12]–[14]. […] As we have highlighted recently[9] GPR84 and the β2-adrenoceptor are only distantly related whilst, of the currently available atomic level GPCR structures, the orexin OX1 receptor[34] has highest overall sequence identity (31%) with GPR84. We, therefore, generated and employed a new homology model of GPR84 based on the transmembrane domain architecture of the OX1 receptor (Fig. 6). However, because ECL2 of GPR84 is very similar in sequence to that of rhodopsin (Fig. 6a), with 43% residue identity over this region, we incorporated this knowledge into the modelling process. In the resulting hybrid model (Fig. 6a) Arg^172 within ECL2 is pointing into the potential binding cavity within the helical bundle. This was not the case when Nikaido et al.,[3] employed the β2-adrenoceptor-based model, probably because the ECL2 sequences of the β2-adrenoceptor and GPR84 have no relatedness. […] To assess this we mutated Arg^172 to Ala within the setting of the GPR84-Cys^352Ile Gαi2 fusion protein. […] Equivalent results were obtained in studies in which the Arg^172Ala mutation was introduced into the FLAG-hGPR84-eYFP construct (Fig. 7b).
FLAG-humanGPR84-Gαi2 fusion proteins were constructed by replacing eYFP within the FLAG-humanGPR84-eYFP-pcDNA5/FRT/TO construct with sequence corresponding to Gαi2 or Cys^352Ile Gαi2 using NotI and XhoI restriction enzymes. Site-directed mutagenesis to generate point mutants of GPR84 was performed according to the QuikChange method (Stratagene, Cheshire, UK). The identity of all constructs was verified by nucleotide sequencing.
(§1) Initially, 5 μg of generated membrane protein was pre-incubated for 15 min at 25 °C in assay buffer (20 mM HEPES, 5 mM MgCl2; 160 mM NaCl; 1 μM GDP; 0.05% fatty acid-free bovine serum albumin; pH 7.5) containing the indicated ligand concentrations. […] The reaction was then initiated with addition of [^35S]GTPγS (50 nCi per tube), and the reaction was terminated after 45 minutes incubation at 30 °C by rapid filtration through GF/C glass filters using a 24-well Brandel cell harvester (Alpha Biotech, Glasgow, UK). Unbound radioligand was removed from filters by three washes with ice-cold phosphate buffered saline (pH 7.4) and filters were dried for 2–3 h at room temperature. Dried filters were added to 3 mL of Ultima Gold^TM XR (PerkinElmer Life Sciences, Beaconsfield, UK) and [^35S]GTPγS binding was determined by liquid scintillation spectrometry.
In general terms: Binding of GTPγS marks nucleotide exchange on a G protein.

Details of data set [3]: method as in PMID 17164373. The settings on record: cited from earlier work.
The test system of data set [4] is GPR84-Gαi2 fusion protein. Put plainly: [35S]GTPγS binding, membranes expressing GPR84-Gαi2 fusion protein. Type of data set: biochemical, human. The settings on record: wild type GPR84-Gαi2 fusion, pertussis toxin 24 h.
Text: The only previous study[3] designed to explore the mode of binding of ligands to GPR84 employed a fusion protein[31],[32] in which the G protein Gαi1 was linked in-frame to the C-terminal tail of GPR84. […] These studies indicate that following pertussis toxin treatment of cells expressing the GPR84-Cys^352Ile Gαi2 fusion protein all agonist-induced binding of [^35S]GTPγS reflects incorporation of nucleotide into the receptor-linked G protein α subunit.
Membranes were generated from Flp-In T-REx HEK293 cells treated with 100 ng/mL doxycycline to induce expression of the receptor construct of interest. Cells were washed with ice-cold phosphate-buffered saline, removed from dishes by scraping and centrifuged at 3000 rpm for 5 min at 4 °C. Pellets were resuspended in TE buffer (10 mM Tris-HCl, 0.1 mM EDTA; pH 7.5) containing a protease inhibitor mixture (Roche Applied Science, West Sussex, UK) and homogenized with a 5 ml hand-held homogenizer. This material was centrifuged at 1500 rpm for 5 min at 4 °C and the supernatant was further centrifuged at 50000 rpm for 45 min at 4 °C. The resulting pellet was resuspended in TE buffer and protein content was assessed using a BCA protein assay kit (Pierce, Fisher Scientific, Loughborough, UK).
as §1

Setting [5] is: oral dosing to women of up to 1000 mg of indole-3-carbinol.

T2 sequence (Q9NQS5 2-396 R172A): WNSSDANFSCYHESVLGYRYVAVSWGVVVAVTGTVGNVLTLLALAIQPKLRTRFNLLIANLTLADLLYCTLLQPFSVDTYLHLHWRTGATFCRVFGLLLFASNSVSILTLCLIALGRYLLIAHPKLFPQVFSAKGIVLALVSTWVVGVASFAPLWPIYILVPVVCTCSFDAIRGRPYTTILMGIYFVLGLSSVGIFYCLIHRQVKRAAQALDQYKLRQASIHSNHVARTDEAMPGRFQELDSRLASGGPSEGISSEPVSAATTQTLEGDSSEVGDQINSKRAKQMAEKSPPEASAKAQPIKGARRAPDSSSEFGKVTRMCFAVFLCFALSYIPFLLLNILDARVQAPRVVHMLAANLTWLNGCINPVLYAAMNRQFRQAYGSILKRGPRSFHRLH
T1 sequence (Q9NQS5 whole entry): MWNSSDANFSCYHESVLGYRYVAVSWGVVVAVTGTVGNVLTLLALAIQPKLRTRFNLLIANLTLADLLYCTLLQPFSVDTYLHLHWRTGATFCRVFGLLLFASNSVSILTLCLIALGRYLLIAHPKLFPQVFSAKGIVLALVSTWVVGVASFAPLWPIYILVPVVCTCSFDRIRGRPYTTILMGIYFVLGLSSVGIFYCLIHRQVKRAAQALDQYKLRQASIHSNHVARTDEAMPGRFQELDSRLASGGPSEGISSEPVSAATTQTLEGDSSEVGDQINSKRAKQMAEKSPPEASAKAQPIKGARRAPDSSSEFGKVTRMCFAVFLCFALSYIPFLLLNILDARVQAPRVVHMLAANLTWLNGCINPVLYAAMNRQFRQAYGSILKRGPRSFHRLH

In the case of `CCCCCCCCCC(=O)O` [C10, decanoic acid], in data set [1], the “capacity to inhibit forskolin-amplified levels of cAMP, compared among MCFAs of chain length C9-C14” value is listed as “produced the largest effect”. The “agonist response at Arg172Ala mutant” value in data set [2] is given as “no response”.
Consider `c1ccc2c(Cc3c[nH]c4ccccc34)c[nH]c2c1` [DIM, 3,-3′-diindolylmethane], for which the “clearance from plasma” value in data set [3] (after oral indole-3-carbinol) is recorded as “rapidly cleared”. Besides, in data set [3] (setting [5]), the “peak plasma level of DIM” value is 500–600 ng/ml and approximately 2 μM; the “time to peak plasma level of DIM” value is at most 2 h. For the same compound, the “response after pertussis toxin pre-treatment” value in data set [4] is “all but eliminated”. Moreover, the “agonist response at Arg172Ala mutant” value in data set [2] is recorded as “retained full activity”.
